Assay results published in patent US10800791B2, “Triazole ACC inhibitors and uses thereof” (Gilead Apollo, LLC, priority 2015, dated 2020).
Converted amounts (≈) assume the structure as drawn. Where two headings read alike, the source gives them in different places.

Tests used:
Rhizoctonia solani (Rs) = assay: Growth inhibition assay of fungal pathogens, Rs; format: cell-based; conditions: 48 h
Septoria tritici (St) = assay: Growth inhibition assay of fungal pathogens, St; format: cell-based; conditions: Zymoseptoria tritici, 48 h, growth inhibition at 48 hours vs 2% DMSO control
Summary of the method: (§1)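 Pathogen growth in 17% V8 broth is measured by OD600 at 24 and 48 hours, after blank subtraction, in the presence of compound at 50, 10 and 2 ppm or 2, 0.4 and 0.08 ppm. Inhibition in percent comes from 48-hour readings against the DMSO control.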

Botrtyis cinerea (Bc) = assay: Growth inhibition assay of fungal pathogens, Bc; format: cell-based; conditions: 48 h, growth inhibition at 48 hours vs 2% DMSO control
Summary of the method: as §1

human (hACC2) = human (hACC2) (Homo sapiens, UniProt O00763); assay: In vitro ACC inhibition assay (ADP-Glo), hACC2; format: biochemical; conditions: 5 nM ACC2, 20 μM ATP, 20 μM acetyl-CoA
Procedure: The detailed procedure is as follows. […] 10 μL ADP glo reagent was added. […] 20 μL kinase detection reagent was added.

C. parapsilosis = assay: Antifungal Activity Assay (broth microtiter MIC), C. parapsilosis; format: cell-based, Candida parapsilosis; conditions: Lodderomyces parapsilosis, ATCC22019, 48 h
Summary of the method: (§2)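 CLSI M27-A3 microdilution; RPMI 1640+MOPS; 2.5×10^3 CFU/mL final inoculum; cultures from Sabouraud dextrose agar, 35° C overnight; compound working solution 128 μg/mL from 1 mg/mL DMSO stock; visual MIC at 48 h vs growth control.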

[1] = tested on: Fusarium virguliforme (Fv); assay: Growth inhibition assay of fungal pathogens, Fv; format: cell-based; conditions: 48 h
Summary of the method: as §1

Diplodia maydis (Dm) = assay: Growth inhibition assay of fungal pathogens, Dm; format: cell-based; conditions: Stenocarpella maydis, 48 h, growth inhibition at 48 hours vs 2% DMSO control
Summary of the method: as §1

[2] = tested on: Collectotrichum graminicola (Cg); assay: Growth inhibition assay of fungal pathogens, Cg; format: cell-based; conditions: 48 h, growth inhibition at 48 hours vs 2% DMSO control
Summary of the method: as §1

C. albicans = assay: Antifungal Activity Assay (broth microtiter MIC), C. albicans; format: cell-based, Candida albicans; conditions: Candida albicans, ATCC90028, 48 h
Summary of the method: as §2

[3] = tested on: Fusarium moniliforme (Fm); assay: Growth inhibition assay of fungal pathogens, Fm; format: cell-based; conditions: Fusarium verticillioides, 48 h, read-out: Concentration at 90% Inhibition Fm
Summary of the method: as §1

[4] = tested on: Phytophthora capsici (Pc); assay: Growth inhibition assay of fungal pathogens, Pc; format: cell-based; conditions: 48 h
Summary of the method: as §1

C. krusei = assay: Antifungal Activity Assay (broth microtiter MIC), C. krusei; format: cell-based, Candida krusei; conditions: Pichia kudriavzevii, ATCC6258, 48 h
Summary of the method: as §2

fungal (fACC2) = fungal (fACC2) (UniProt Q00955); conditions: read-out: fACC2 (in vitro ACC2 Inhibition Assay, IC50), ADP-Glo, 5 nM ACC2, 20 μM ATP, 20 μM acetyl-CoA
[5] = mycelial plugs, growth inhibition at 48 hours vs 2% DMSO control, read-out: Concentration at 90% Inhibition Rs
[6] = Septoria tritici, read-out: Concentration at 90% Inhibition St
[7] = Botrtyis cinerea, read-out: Concentration at 90% Inhibition Bc
[8] = Table 3a, ATCC 22019, 3 replicates, MIC recorded at 48 h, read-out: MIC, C. parapsilosis ATCC 22019
[9] = Table 3b (additional results), ATCC 22019, 3 replicates, MIC recorded at 48 h, read-out: MIC, C. parapsilosis ATCC 22019
[10] = growth inhibition at 48 hours vs 2% DMSO control, read-out: Concentration at 90% Inhibition Fv
[11] = Diplodia maydis, read-out: Concentration at 90% Inhibition Dm
[12] = Collectotrichum graminicola, read-out: Concentration at 90% Inhibition Cg
[13] = Table 3a, ATCC 90028, 3 replicates, MIC recorded at 48 h, read-out: MIC, C. albicans ATCC 90028
[14] = Table 3b (additional results), ATCC 90028, 3 replicates, MIC recorded at 48 h, read-out: MIC, C. albicans ATCC 90028
[15] = Fusarium moniliforme, growth inhibition at 48 hours vs 2% DMSO control
[16] = growth inhibition at 48 hours vs 2% DMSO control, read-out: Concentration at 90% Inhibition Pc
[17] = Table 3a, ATCC 6258, 3 replicates, MIC recorded at 48 h, read-out: MIC, C. krusei ATCC 6258
[18] = Table 3b (additional results), ATCC 6258, 3 replicates, MIC recorded at 48 h, read-out: MIC, C. krusei ATCC 6258

Chain of fungal (fACC2) (Q00955 whole entry): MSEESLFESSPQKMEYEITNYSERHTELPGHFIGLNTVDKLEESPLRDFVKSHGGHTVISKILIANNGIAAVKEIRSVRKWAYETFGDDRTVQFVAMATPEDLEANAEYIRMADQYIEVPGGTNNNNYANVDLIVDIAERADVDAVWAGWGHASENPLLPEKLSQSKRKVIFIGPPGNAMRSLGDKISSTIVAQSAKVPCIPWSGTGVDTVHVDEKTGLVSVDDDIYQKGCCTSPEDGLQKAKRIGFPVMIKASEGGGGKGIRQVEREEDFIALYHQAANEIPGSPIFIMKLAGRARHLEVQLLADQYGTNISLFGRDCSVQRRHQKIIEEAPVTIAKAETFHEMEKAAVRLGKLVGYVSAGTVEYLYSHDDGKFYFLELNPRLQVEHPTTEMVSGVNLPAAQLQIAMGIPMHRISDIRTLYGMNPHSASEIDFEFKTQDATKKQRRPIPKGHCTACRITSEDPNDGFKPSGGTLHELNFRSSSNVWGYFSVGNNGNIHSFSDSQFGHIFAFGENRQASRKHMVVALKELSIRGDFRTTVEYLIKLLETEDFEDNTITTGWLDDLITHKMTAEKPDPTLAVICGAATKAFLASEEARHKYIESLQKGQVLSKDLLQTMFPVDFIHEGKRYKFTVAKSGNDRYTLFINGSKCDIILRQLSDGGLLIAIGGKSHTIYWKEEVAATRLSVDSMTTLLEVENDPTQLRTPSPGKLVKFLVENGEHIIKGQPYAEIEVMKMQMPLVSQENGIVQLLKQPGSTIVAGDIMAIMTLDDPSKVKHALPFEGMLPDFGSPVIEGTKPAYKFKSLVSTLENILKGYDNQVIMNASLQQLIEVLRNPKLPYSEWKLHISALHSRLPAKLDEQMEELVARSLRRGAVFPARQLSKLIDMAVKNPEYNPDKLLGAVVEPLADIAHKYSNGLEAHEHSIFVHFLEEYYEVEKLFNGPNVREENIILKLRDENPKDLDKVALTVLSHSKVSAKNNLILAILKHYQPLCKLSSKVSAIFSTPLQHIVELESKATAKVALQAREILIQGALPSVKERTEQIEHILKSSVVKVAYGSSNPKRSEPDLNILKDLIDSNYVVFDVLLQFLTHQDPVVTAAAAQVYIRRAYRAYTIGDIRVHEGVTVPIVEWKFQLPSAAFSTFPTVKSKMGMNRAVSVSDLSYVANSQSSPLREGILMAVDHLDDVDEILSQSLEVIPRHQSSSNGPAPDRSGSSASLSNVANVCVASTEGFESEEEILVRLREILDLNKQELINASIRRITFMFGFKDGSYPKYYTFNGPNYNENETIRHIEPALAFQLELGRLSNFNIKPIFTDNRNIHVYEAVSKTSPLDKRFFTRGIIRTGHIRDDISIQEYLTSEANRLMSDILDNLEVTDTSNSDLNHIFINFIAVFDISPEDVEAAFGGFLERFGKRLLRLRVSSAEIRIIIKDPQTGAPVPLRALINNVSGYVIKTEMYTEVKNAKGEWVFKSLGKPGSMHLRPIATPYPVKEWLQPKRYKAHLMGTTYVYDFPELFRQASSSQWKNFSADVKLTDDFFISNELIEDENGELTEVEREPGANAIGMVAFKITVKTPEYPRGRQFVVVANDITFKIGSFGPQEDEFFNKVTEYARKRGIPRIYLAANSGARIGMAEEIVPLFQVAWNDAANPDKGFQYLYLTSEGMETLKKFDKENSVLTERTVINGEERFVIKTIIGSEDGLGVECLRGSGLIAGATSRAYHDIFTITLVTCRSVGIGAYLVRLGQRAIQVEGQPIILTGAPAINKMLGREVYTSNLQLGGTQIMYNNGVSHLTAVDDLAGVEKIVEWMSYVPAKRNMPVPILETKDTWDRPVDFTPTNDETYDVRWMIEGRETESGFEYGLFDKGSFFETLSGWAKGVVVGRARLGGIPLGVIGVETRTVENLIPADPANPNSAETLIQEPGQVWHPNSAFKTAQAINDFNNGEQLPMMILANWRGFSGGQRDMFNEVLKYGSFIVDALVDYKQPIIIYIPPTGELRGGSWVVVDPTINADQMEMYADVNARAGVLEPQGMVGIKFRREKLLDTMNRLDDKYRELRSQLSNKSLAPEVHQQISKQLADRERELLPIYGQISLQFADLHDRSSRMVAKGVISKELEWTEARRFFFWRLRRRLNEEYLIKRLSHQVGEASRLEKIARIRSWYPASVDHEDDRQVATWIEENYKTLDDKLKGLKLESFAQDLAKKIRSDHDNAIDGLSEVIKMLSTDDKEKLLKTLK
Chain of human (hACC2) (O00763 whole entry): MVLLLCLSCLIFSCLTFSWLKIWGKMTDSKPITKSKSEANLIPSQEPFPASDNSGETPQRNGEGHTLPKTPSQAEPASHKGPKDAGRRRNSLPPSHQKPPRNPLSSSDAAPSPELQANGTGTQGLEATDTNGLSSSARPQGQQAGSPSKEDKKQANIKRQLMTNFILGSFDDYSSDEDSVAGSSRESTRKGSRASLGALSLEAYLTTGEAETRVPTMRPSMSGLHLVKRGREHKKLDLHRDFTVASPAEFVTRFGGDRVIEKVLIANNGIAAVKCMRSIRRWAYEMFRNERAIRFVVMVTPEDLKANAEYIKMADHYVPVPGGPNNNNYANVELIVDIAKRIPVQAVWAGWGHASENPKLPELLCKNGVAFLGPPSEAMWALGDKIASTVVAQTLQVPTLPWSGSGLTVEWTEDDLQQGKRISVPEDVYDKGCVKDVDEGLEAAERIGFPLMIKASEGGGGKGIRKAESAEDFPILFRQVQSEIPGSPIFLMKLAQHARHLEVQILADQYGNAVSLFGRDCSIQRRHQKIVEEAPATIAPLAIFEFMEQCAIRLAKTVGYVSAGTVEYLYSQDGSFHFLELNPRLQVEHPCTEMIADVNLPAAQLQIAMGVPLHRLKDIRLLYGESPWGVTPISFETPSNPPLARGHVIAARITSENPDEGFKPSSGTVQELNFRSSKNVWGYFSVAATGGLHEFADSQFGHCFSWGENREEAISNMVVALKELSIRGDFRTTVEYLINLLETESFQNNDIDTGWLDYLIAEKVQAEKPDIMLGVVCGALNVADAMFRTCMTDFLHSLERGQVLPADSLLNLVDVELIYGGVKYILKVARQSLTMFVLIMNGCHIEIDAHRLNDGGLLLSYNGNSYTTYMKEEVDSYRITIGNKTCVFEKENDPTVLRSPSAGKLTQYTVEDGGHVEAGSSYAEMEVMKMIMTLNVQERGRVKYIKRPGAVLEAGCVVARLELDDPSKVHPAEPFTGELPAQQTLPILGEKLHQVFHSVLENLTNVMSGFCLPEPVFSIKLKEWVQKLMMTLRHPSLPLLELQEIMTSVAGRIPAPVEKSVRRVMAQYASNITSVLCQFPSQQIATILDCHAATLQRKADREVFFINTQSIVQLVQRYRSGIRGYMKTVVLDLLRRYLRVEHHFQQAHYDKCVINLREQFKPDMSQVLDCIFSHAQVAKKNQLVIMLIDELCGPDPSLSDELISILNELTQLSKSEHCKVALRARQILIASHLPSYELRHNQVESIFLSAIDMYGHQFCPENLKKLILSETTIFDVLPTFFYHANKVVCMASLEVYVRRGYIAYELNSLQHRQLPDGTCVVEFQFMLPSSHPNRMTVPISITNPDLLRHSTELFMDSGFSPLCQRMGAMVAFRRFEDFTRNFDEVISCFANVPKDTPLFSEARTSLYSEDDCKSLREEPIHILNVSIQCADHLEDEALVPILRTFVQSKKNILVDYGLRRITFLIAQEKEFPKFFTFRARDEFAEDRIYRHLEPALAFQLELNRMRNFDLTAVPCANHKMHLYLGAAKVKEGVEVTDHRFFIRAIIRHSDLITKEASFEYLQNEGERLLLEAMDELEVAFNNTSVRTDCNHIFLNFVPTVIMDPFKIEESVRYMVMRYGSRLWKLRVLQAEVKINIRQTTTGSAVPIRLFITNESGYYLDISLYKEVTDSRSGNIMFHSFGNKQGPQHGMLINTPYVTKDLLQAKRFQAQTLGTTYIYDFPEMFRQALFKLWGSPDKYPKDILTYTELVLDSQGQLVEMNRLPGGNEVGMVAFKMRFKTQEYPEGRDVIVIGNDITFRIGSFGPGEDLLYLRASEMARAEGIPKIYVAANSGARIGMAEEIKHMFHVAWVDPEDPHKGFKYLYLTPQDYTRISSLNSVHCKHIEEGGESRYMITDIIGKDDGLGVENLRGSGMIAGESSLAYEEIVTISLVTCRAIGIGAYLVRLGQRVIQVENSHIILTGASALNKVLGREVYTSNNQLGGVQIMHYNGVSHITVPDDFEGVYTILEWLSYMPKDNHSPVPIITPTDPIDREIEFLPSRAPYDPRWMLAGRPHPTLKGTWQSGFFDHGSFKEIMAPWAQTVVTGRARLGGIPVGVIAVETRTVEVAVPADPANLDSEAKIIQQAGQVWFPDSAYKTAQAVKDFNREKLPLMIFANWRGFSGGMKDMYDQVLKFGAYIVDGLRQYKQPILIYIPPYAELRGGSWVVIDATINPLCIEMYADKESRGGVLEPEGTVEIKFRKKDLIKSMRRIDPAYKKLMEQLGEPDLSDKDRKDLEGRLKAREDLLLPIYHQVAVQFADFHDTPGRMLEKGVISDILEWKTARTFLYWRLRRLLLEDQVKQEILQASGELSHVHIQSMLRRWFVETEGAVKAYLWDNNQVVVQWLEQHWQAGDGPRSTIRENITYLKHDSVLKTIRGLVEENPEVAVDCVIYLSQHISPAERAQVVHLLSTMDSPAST

## CNC(=O)C(C)(C)n1c(=O)c2c(C)c(-n3nccn3)sc2n(C[C@H](OCCC#N)c2cc(F)ccc2OC)c1=O [Compound I-141]
Rhizoctonia solani (Rs); [5]
  IC90: 0.08 µg/mL (≈ 0.14 µM)
Septoria tritici (St); [6]
  IC90: > 50 µg/mL
Botrtyis cinerea (Bc); [7]
  IC90: 2 µg/mL (≈ 3.51 µM)
Human (hACC2); Table 2a
  IC50: 5 to 10 nM
Human (hACC2); Table 2b, additional results
  IC50: 5 to 10 nM
C. parapsilosis; [8]
  MIC: 2.1 to 4 µg/mL (≈ 3.69 to 7.02 µM)
C. parapsilosis; [9]
  MIC: 2.01 to 4 µg/mL (≈ 3.53 to 7.02 µM)
[1]; [10]
  IC90: 2 µg/mL (≈ 3.51 µM)
Diplodia maydis (Dm); [11]
  IC90: 2 µg/mL (≈ 3.51 µM)
[2]; [12]
  IC90: 10 µg/mL (≈ 17.6 µM)
C. albicans; [13]
  MIC: 2.1 to 4 µg/mL (≈ 3.69 to 7.02 µM)
C. albicans; [14]
  MIC: > 4.01 µg/mL
[3]; [15]
  IC90: 0.08 µg/mL (≈ 0.14 µM)
[4]; [16]
  IC90: > 50 µg/mL
C. krusei; [17]
  MIC: 2.1 to 4 µg/mL (≈ 3.69 to 7.02 µM)
C. krusei; [18]
  MIC: 2.01 to 4 µg/mL (≈ 3.53 to 7.02 µM)
Fungal (fACC2); Table 2a
  IC50: 1 to 5 nM
Fungal (fACC2); Table 2b, additional results
  IC50: 1 to 5 nM

## CCNC(=O)C(C)(C)n1c(=O)c2c(C)c(-n3nccn3)sc2n(C[C@H](OCCC#N)c2ccccc2OC)c1=O [Compound I-142]
Rhizoctonia solani (Rs); [5]
  IC90: 0.08 µg/mL (≈ 0.141 µM)
Septoria tritici (St); [6]
  IC90: > 50 µg/mL
Botrtyis cinerea (Bc); [7]
  IC90: 0.4 µg/mL (≈ 0.707 µM)
Human (hACC2); Table 2a
  IC50: 1 to 5 nM
Human (hACC2); Table 2b, additional results
  IC50: 1 to 5 nM
C. parapsilosis; [8]
  MIC: 2.1 to 4 µg/mL (≈ 3.71 to 7.07 µM)
C. parapsilosis; [9]
  MIC: 1.01 to 2 µg/mL (≈ 1.79 to 3.54 µM)
[1]; [10]
  IC90: 0.4 µg/mL (≈ 0.707 µM)
Diplodia maydis (Dm); [11]
  IC90: 2 µg/mL (≈ 3.54 µM)
[2]; [12]
  IC90: 2 µg/mL (≈ 3.54 µM)
C. albicans; [13]
  MIC: 2.1 to 4 µg/mL (≈ 3.71 to 7.07 µM)
C. albicans; [14]
  MIC: 2.01 to 4 µg/mL (≈ 3.55 to 7.07 µM)
[3]; [15]
  IC90: 0.4 µg/mL (≈ 0.707 µM)
[4]; [16]
  IC90: > 50 µg/mL
C. krusei; [17]
  MIC: 1.1 to 2 µg/mL (≈ 1.94 to 3.54 µM)
C. krusei; [18]
  MIC: 2.01 to 4 µg/mL (≈ 3.55 to 7.07 µM)
Fungal (fACC2); Table 2a
  IC50: 1 to 5 nM
Fungal (fACC2); Table 2b, additional results
  IC50: 1 to 5 nM

## CNC(=O)C(C)(C)n1c(=O)c2c(C)c(-n3nccn3)sc2n(C[C@H](OCCC#N)c2ccccc2OC)c1=O [Compound I-143]
Rhizoctonia solani (Rs); [5]
  IC90: 0.08 µg/mL (≈ 0.145 µM)
Septoria tritici (St); [6]
  IC90: > 50 µg/mL
Botrtyis cinerea (Bc); [7]
  IC90: 2 µg/mL (≈ 3.63 µM)
Human (hACC2); Table 2a
  IC50: 5 to 10 nM
Human (hACC2); Table 2b, additional results
  IC50: 5 to 10 nM
C. parapsilosis; [8]
  MIC: 2.1 to 4 µg/mL (≈ 3.81 to 7.25 µM)
C. parapsilosis; [9]
  MIC: 1.01 to 2 µg/mL (≈ 1.83 to 3.63 µM)
[1]; [10]
  IC90: 10 µg/mL (≈ 18.1 µM)
Diplodia maydis (Dm); [11]
  IC90: 10 µg/mL (≈ 18.1 µM)
[2]; [12]
  IC90: > 50 µg/mL
C. albicans; [13]
  MIC: 2.1 to 4 µg/mL (≈ 3.81 to 7.25 µM)
C. albicans; [14]
  MIC: 2.01 to 4 µg/mL (≈ 3.64 to 7.25 µM)
[3]; [15]
  IC90: 0.08 µg/mL (≈ 0.145 µM)
[4]; [16]
  IC90: > 50 µg/mL
C. krusei; [17]
  MIC: 2.1 to 4 µg/mL (≈ 3.81 to 7.25 µM)
C. krusei; [18]
  MIC: 2.01 to 4 µg/mL (≈ 3.64 to 7.25 µM)
Fungal (fACC2); Table 2a
  IC50: 1 to 5 nM
Fungal (fACC2); Table 2b, additional results
  IC50: 1 to 5 nM

## COc1ccc(F)cc1[C@H](Cn1c(=O)n(C(C)(C)C(=O)NC(C)C)c(=O)c2c(C)c(-n3nccn3)sc21)OCC#N [Compound I-144]
Rhizoctonia solani (Rs); read-out: Concentration at 90% Inhibition Rs, Rhizoctonia solani, mycelial plugs, growth inhibition at 48 hours vs 2% DMSO control
  IC90: 0.08 µg/mL (≈ 0.137 µM)
Septoria tritici (St); read-out: Concentration at 90% Inhibition St, Septoria tritici
  IC90: > 50 µg/mL
Botrtyis cinerea (Bc); read-out: Concentration at 90% Inhibition Bc, Botrtyis cinerea
  IC90: 0.4 µg/mL (≈ 0.685 µM)
Human (hACC2); Table 2b, additional results
  IC50: 5 to 10 nM
C. parapsilosis; read-out: MIC, C. parapsilosis ATCC 22019, Table 3a, 3 replicates, MIC recorded at 48 h
  MIC: 0.25 to 1 µg/mL (≈ 0.428 to 1.71 µM)
C. parapsilosis; read-out: MIC, C. parapsilosis ATCC 22019, Table 3b (additional results), 3 replicates, MIC recorded at 48 h
  MIC: 1.01 to 2 µg/mL (≈ 1.73 to 3.43 µM)
[1]; read-out: Concentration at 90% Inhibition Fv, Fusarium virguliforme, growth inhibition at 48 hours vs 2% DMSO control
  IC90: 0.4 µg/mL (≈ 0.685 µM)
Diplodia maydis (Dm); read-out: Concentration at 90% Inhibition Dm, Diplodia maydis
  IC90: 0.4 µg/mL (≈ 0.685 µM)
[2]; read-out: Concentration at 90% Inhibition Cg, Collectotrichum graminicola
  IC90: 0.4 µg/mL (≈ 0.685 µM)
C. albicans; read-out: MIC, C. albicans ATCC 90028, Table 3a, 3 replicates, MIC recorded at 48 h
  MIC: 0.25 to 1 µg/mL (≈ 0.428 to 1.71 µM)
C. albicans; read-out: MIC, C. albicans ATCC 90028, Table 3b (additional results), 3 replicates, MIC recorded at 48 h
  MIC: 1.01 to 2 µg/mL (≈ 1.73 to 3.43 µM)
[3]
  IC90: 2 µg/mL (≈ 3.43 µM)
[4]; read-out: Concentration at 90% Inhibition Pc, Phytophthora capsici, growth inhibition at 48 hours vs 2% DMSO control
  IC90: > 50 µg/mL
C. krusei; read-out: MIC, C. krusei ATCC 6258, Table 3a, 3 replicates, MIC recorded at 48 h
  MIC: 0.25 to 1 µg/mL (≈ 0.428 to 1.71 µM)
C. krusei; read-out: MIC, C. krusei ATCC 6258, Table 3b (additional results), 3 replicates, MIC recorded at 48 h
  MIC: 0.25 to 1 µg/mL (≈ 0.428 to 1.71 µM)
Fungal (fACC2); Table 2a
  IC50: 1 to 5 nM
Fungal (fACC2); Table 2b, additional results
  IC50: 1 to 5 nM

## COc1ccc(F)cc1[C@H](Cn1c(=O)n(C(C)(C)C(=O)NC(C)C)c(=O)c2c(C)c(-n3nccn3)sc21)OC[C@@H](C)C#N [Compound I-150]
Rhizoctonia solani (Rs); [5]
  IC90: 0.08 µg/mL (≈ 0.131 µM)
Septoria tritici (St); [6]
  IC90: > 50 µg/mL
Botrtyis cinerea (Bc); [7]
  IC90: 0.4 µg/mL (≈ 0.654 µM)
Human (hACC2); Table 2a
  IC50: 1 to 5 nM
Human (hACC2); Table 2b, additional results
  IC50: 1 to 5 nM
C. parapsilosis; [8]
  MIC: 0.25 to 1 µg/mL (≈ 0.409 to 1.63 µM)
C. parapsilosis; [9]
  MIC: 0.25 to 1 µg/mL (≈ 0.409 to 1.63 µM)
[1]; [10]
  IC90: 0.4 µg/mL (≈ 0.654 µM)
Diplodia maydis (Dm); [11]
  IC90: 0.08 µg/mL (≈ 0.131 µM)
[2]; [12]
  IC90: 0.08 µg/mL (≈ 0.131 µM)
C. albicans; [13]
  MIC: 0.25 to 1 µg/mL (≈ 0.409 to 1.63 µM)
C. albicans; [14]
  MIC: 0.25 to 1 µg/mL (≈ 0.409 to 1.63 µM)
[3]; [15]
  IC90: 0.08 µg/mL (≈ 0.131 µM)
[4]; [16]
  IC90: > 50 µg/mL
C. krusei; [17]
  MIC: 0.25 to 1 µg/mL (≈ 0.409 to 1.63 µM)
C. krusei; [18]
  MIC: 0.25 to 1 µg/mL (≈ 0.409 to 1.63 µM)
Fungal (fACC2); Table 2a
  IC50: 0.4 to 1 nM
Fungal (fACC2); Table 2b, additional results
  IC50: 0.3 to 1 nM
